Data as given in US20130252930A1 (BIOMARIN PHARMACEUTICAL INC., priority 2010, published 2013).
Read-outs that look alike come from different tables or passages of the source.

Legend:
[1] = Rat liver microsome stability assay (Biological Example 8a); settings: liver microsomes, pH 7.4
Method: Each test compound (1.5 μM, 30 μL) was incubated with rat (BD Gentest, Cat No. 452501) or human (BD Gentest, Cat No. 452161) liver microsomes (0.75 mg/mL, 0.1 M potassium phosphate buffer, 1.0 mM EDTA, pH 7.4) in 96 well plates. The reaction was started with addition of excess NADPH (5 mg/mL, 15 μL in 0.1 M potassium phosphate buffer, 1.0 mM EDTA, pH 7.4), the total volume is 45 μL (compound final concentration was 1 μM). The incubations were terminated at time zero and at 5, 15, 30, and 60 minutes by addition of 135 μL/excess ACN containing internal standard (1S). After quenching, the reaction mixtures was centrifuged (Eppendorf Centrifuge 5810R) at 3220×g for 10 min (4° C.). 50 μL of the supernatant was transferred from each well into a 96-well sample plate containing 50 μL of ultra-pure water (Millipore) for LC-MS/MS analysis. The half-life T1/2=0.693/K (K is the rate constant from a plot of log [concentration] vs. incubation time) was calculated.

[2] = target: T1, CYP17 (human testicular microsome) (Homo sapiens, UniProt P05093); test: CYP17 enzymatic assay (% inhibition at 10 nM), version 1 (Biological Example 5); assay type: biochemical
T1 construct: using microsomal fraction from human testis (Celsis Cat #S00110) as the enzyme source; tissue Celsis S00110; host or cells: human testis microsomal fraction
T1 sequence (P05093 1-508): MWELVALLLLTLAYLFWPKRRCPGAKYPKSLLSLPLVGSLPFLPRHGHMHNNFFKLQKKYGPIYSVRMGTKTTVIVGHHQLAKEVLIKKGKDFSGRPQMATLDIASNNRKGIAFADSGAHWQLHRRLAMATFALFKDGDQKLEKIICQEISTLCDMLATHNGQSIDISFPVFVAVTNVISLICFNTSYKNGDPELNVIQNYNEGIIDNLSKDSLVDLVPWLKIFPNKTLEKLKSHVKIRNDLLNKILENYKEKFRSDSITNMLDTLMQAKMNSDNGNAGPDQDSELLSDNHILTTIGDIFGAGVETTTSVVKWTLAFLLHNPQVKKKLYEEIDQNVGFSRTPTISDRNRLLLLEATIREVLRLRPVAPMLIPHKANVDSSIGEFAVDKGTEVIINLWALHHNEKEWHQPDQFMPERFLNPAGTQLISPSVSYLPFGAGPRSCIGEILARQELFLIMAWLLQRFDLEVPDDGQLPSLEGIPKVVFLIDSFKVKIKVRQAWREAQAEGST

[3] = target: T1, CYP17 (human testicular microsome); test: CYP17 enzymatic assay (IC50) (Biological Example 4); assay type: biochemical
[4] = target: T2, Cyp21 enzyme (Human HEK 293-Cyp21 stable transfected cells) (Homo sapiens, UniProt P08686); test: CYP21-HEK293 enzymatic assay (% inhibition at 100 nM) (Biological Example 10); assay type: cell-based; settings: HEK 293-Cyp21 cells
T2 construct: expressed in transfected cells
T2 sequence (P08686 1-495): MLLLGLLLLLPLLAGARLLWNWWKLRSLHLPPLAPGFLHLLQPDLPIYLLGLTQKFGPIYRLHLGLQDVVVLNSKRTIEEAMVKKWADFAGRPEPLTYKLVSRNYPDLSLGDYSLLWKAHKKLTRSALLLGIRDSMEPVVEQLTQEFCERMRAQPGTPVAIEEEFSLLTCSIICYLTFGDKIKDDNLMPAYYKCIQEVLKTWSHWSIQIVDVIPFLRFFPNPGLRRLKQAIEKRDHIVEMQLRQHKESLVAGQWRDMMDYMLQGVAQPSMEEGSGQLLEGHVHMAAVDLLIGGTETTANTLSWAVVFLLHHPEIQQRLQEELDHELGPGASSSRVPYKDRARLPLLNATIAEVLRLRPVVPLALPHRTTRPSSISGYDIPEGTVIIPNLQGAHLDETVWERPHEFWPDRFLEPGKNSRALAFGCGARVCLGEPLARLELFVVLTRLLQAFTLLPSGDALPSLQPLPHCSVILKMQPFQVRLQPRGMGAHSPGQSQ
In short: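 Percent inhibition at 100 nM: DOC in conditioned medium was read by ELISA at 450 nm and quantified from a standard curve. Stably transfected human Cyp21 HEK293 cells were pretreated 5 h with compound or 1% methanol mock, then given 10 μM final progesterone for 20 h at 37 °C.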

[5] = Human liver microsome stability assay (Biological Example 8b); settings: liver microsomes, pH 7.4
Method: The reaction was started with addition of excess NADPH (5 mg/mL, 15 μL in 0.1 M potassium phosphate buffer, 1.0 mM EDTA, pH 7.4), the total volume is 45 μL (compound final concentration was 1 μM). […] 50 μL of the supernatant was transferred from each well into a 96-well sample plate containing 50 μL of ultra-pure water (Millipore) for LC-MS/MS analysis.

[6] = system: rat Cyp11B enzyme (rat adrenal mitochondria); test: CYP11B enzymatic assay (% inhibition at 100 nM) (Biological Example 9); assay type: biochemical; settings: for Biological Example No. 9: CYP11B percent inhibition at 100 nM: 100 nM compound, cortisol by ELISA; for CYP11B enzymatic assay % inhibition at 100 nM (Biological Example No. 9): compound at 100 nM
In short: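 Sprague Dawley rat adrenal mitochondria were incubated with compound at 100 nM, 0.5 mM NADPH and 0.1 μM 11-deoxycortisol (pH 7.4 Tris buffer) for 60 min at 37 °C. Cortisol was measured by ELISA and corrected by subtracting the no-NADPH background. % inhibition is relative to the no-compound reaction.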

[7] = target: T1, CYP17 (human testicular microsome); test: CYP17 enzymatic assay (% inhibition at 1 nM) (Biological Example 12); assay type: biochemical; settings: compound at 1 nM, read-out: CYP17 enzymatic assay % inhibition at 1 nM (Biological Example No. 12)
CYP17 (H295R cells) = target: T3, CYP17 (H295R cells) (Homo sapiens, UniProt P05093); test: CYP17 cellular assay (IC50), testosterone in H295R cells (Biological Example 7); assay type: cell-based; settings: H295R cells, testosterone; read-out: CYP17 cellular assay IC50 (Biological Example No. 7)
T3 construct: endogenous in cells; host or cells: H295R cells
T3 sequence (P05093 1-508): T1 sequence (P05093 1-508)
In short: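 Testosterone in the medium was quantified by ELISA after 24 h at 37 °C with test compound (final 100, 10, 1, 0.1 nM; serum-free DMEM/F-12, ITS+, 0.1% methanol). The H295R cells had been seeded and grown 24 h beforehand; vehicle wells served as control.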

[8] = 10 nM compound, DHEA by ELISA, read-out: Biological Example No. 5: CYP17 percent inhibition at 10 nM (version 1)
[9] = human testicular microsome, DHEA by ELISA, read-out: Biological Example No. 4: CYP17 enzymatic assay IC50
[10] = 100 nM compound, read-out: Biological Example No. 10: CYP21-HEK293 percent inhibition at 100 nM
[11] = compound at 100 nM, read-out: CYP21-HEK293 enzymatic assay % inhibition at 100 nM (Biological Example No. 10)
[12] = human testicular microsome, read-out: CYP17 enzymatic assay IC50 (Biological Example No. 4)

Structure (SMILES) | half-life at 1 μM [1] [min] | inhibition at 0.01 µM [2, 8] [%] | IC50 [3, 9] [nM] | half-life at 1 μM [5] [min] | other results
CCCOc1cncc(C2=CC[C@H]3[C@@H]4CCN5CCCCC[C@]5(C)[C@H]4CC[C@]23C)c1 [Compound 46, (11aR,13aS)-11a,13a-dimethyl-1-(5-propoxypyridin-3-yl)-3a,3b,4,5,7,8,9,10,11,11a,11b,12,13,13a-tetradecahydro-3H-azepino[2,1-a]cyclopenta[f]isoquinoline] | 10 to 60 | 50 to 80 |  |  | 
CCc1cncc(C2=CC[C@H]3[C@@H]4CCN5CCCCC[C@]5(C)[C@H]4CC[C@]23C)c1 [Compound 48, (11aR,13aS)-1-(5-ethylpyridin-3-yl)-11a,13a-dimethyl-3a,3b,4,5,7,8,9,10,11,11a,11b,12,13,13a-tetradecahydro-3H-azepino[2,1-a]cyclopenta[f]isoquinoline] | 1 to 10 | 1 to 50 |  |  | 
C[C@]12CCNC(=O)C=C1CC[C@@H]1[C@@H]2CC[C@]2(C)C(n3ncnn3)=CC[C@@H]12 [Compound 63] | 1 to 10 | > 80 |  |  | 
Cc1cncc(C2=CC[C@H]3[C@@H]4CC(O)C5CCCC[C@]5(C)[C@H]4CC[C@]23C)c1 (stereo partly drawn) [Compound 70, (10R,13S)-10,13-dimethyl-17-(5-methylpyridin-3-yl)-2,3,4,5,6,7,8,9,10,11,12,13,14,15-tetradecahydro-1H-cyclopenta[a]phenanthren-6-ol] | 1 to 10 |  | < 11 |  | 
Cc1cncc(C2=CC[C@H]3[C@@H]4CC(=O)C5CCCC[C@]5(C)[C@H]4CC[C@]23C)c1 (stereo partly drawn) [Compound 71, (10R,13S)-10,13-dimethyl-17-(5-methylpyridin-3-yl)-2,3,4,5,7,8,9,11,12,13,14,15-dodecahydro-1H-cyclopenta[a]phenanthren-6(10H)-one] | 1 to 10 |  | < 11 |  | 
COc1cncc(C2=CC[C@H]3[C@@H]4CC(=O)C5CCCC[C@]5(C)[C@H]4CC[C@]23C)c1 (stereo partly drawn) [Compound 72, (10R,13S)-17-(5-methoxypyridin-3-yl)-10,13-dimethyl-2,3,4,5,7,8,9,11,12,13,14,15-dodecahydro-1H-cyclopenta[a]phenanthren-6(10H)-one] | 1 to 10 |  | < 11 |  | 
Cc1cncc(C2=CC[C@H]3[C@@H]4CC[C@H]5COC(=O)CC[C@]5(C)[C@H]4CC[C@]23C)c1 [Compound 119, (5aR,5bS,7aS,10aS,10bR,12aR)-5a,7a-dimethyl-8-(5-methylpyridin-3-yl)-5,5a,5b,6,7,7a,10,10a,10b,11,12,12a-dodecahydro-1H-cyclopenta[5,6]naphtho[2,1-c]oxepin-3(4H)-one] | 1 to 10 | 1 to 50 |  |  | 
CN1CC[C@@]2(C)C(=CC1=O)CC[C@H]1C3=CC=C(c4cccnc4)[C@@]3(C)CC[C@@H]12 [Compound 158] |  | > 80 | < 11 | 1 to 50 | inhibition at 0.1 µM [4, 10]: ≥ 30%; Biological Example No. 9: CYP11B percent inhibition at 100 nM [6]: T (T means the compound had a percent inhibition of less than 32% when tested at 100 nM)
C[C@]12CC[C@H]3[C@@H](CC[C@H]4CC(=O)CC[C@@]43C)C1=CC=C2c1cccnc1 [Compound 164, (5S,8R,9S,10S,13S)-10,13-dimethyl-17-(pyridin-3-yl)-4,5,6,7,8,9,10,11,12,13-decahydro-1H-cyclopenta[a]phenanthren-3(2H)-one] |  | > 80 | < 11 | 1 to 50 | inhibition at 0.1 µM [4, 10]: ≥ 30%; Biological Example No. 9: CYP11B percent inhibition at 100 nM [6]: U (U means the compound had a percent inhibition of greater than or equal to 32%)
C[C@]12CC[C@H]3[C@@H](CC[C@H]4CC(=O)CC[C@@]43C)C1=CC=C2n1ccnc1 [Compound 171] |  | > 80 |  | 1 to 50 | inhibition at 0.1 µM [4, 10]: < 30%; IC50 [3]: < 11 nM; Biological Example No. 9: CYP11B percent inhibition at 100 nM [6]: T (T means the compound had a percent inhibition of less than 32% when tested at 100 nM)
C[C@]12CCC(NC(=O)C3CC3)CC1=CCC1C2CC[C@]2(C)C(n3ccnc3)=CCC12 (stereo partly drawn) [Compound 238, N-((10R,13S)-17-(1H-imidazol-1-yl)-10,13-dimethyl-2,3,4,7,8,9,10,11,12,13,14,15-dodecahydro-1H-cyclopenta[a]phenanthren-3-yl)cyclopropanecarboxamide] |  |  |  | 1 to 50 | inhibition at 0.1 µM [4, 11]: < 30%; inhibition at 0.001 µM [7]: > 50%; IC50 [3, 12]: < 11 nM; CYP11B enzymatic assay % inhibition at 100 nM (Biological Example No. 9) [6]: U (U means the compound had a percent inhibition of greater than or equal to 32%)
C[C@]12CC[C@H]3[C@@H](CC[C@H]4CC(=O)NCC[C@@]43C)C1=CC=C2n1ccnc1 [Compound 447, (5aS,5bS,7aS,10bR,12aS)-8-(1H-imidazol-1-yl)-5a,7a-dimethyl-3,4,5,5a,5b,6,7,7a,10b,11,12,12a-dodecahydrocyclopenta[5,6]naphtho[1,2-d]azepin-2(1H)-one] |  |  |  | 1 to 50 | inhibition at 0.1 µM [4, 11]: ≥ 30%; IC50 [3, 12]: < 11 nM; inhibition at 0.01 µM ([2]; compound at 10 nM, read-out: CYP17 enzymatic assay % inhibition at 10 nM (Biological Example No. 5)): > 80%; CYP11B enzymatic assay % inhibition at 100 nM (Biological Example No. 9) [6]: na (“na” means the compound was not active under the conditions tested)
Cc1ccncc1C1=CC[C@H]2[C@@H]3CC[C@H]4CC(=O)NCC[C@]4(C)[C@H]3CC[C@]12C [Compound 462, (5aS,5bS,7aS,10aS,10bR,12aS)-5a,7a-dimethyl-8-(4-methylpyridin-3-yl)-3,4,5,5a,5b,6,7,7a,10,10a,10b,11,12,12a-tetradecahydrocyclopenta[5,6]naphtho[1,2-d]azepin-2(1H)-one] |  |  |  |  | inhibition at 0.1 µM [4, 11]: < 30%; inhibition at 0.001 µM [7]: 10 to 50%; IC50 (CYP17 (H295R cells)): < 15 nM; CYP11B enzymatic assay % inhibition at 100 nM (Biological Example No. 9) [6]: T (T means the compound had a percent inhibition of less than 32% when tested at 100 nM)
